A short description of one data set: Clearance in vitro, rat. Format: in vitro ADME. As for the experimental part: (§1) The potency and efficacy of Compound 13 was evaluated in vivo. For these studies, the pharmacokinetics of Compound 13 were first evaluated in vitro and in vivo (FIG. 14).
The nature of data set [1]: Intrinsic clearance in vitro, mouse. It counts as in vitro ADME. As for the experimental part: as §1
Another data set relates to HEp3 cells. Nature of the data set: E-cadherin mRNA, protein and histone marks in HEp3 cells. It counts as cell-based, Human. Particulars: by 6 hours after treatment, compared with Compound 124 treatment. As for the experimental part:
To determine if Compound 13 restores E-cadherin in HEp3 cells, the effect of Compound 13 treatment on E-cadherin mRNA expression was tested. Compound 13 induced an 8-fold increase in E-cadherin mRNA by 6 hours after treatment in the […] compared with Compound 124 treatment (FIG. 15C). Not only E-cadherin specific mRNA, but also E-cadherin protein, was induced by Compound 13 treatment (FIG. 15D).
Avian embryos were treated with Compound 124 (266Y) or Compound 13 (259Y) 24 hours after intravenous injection of GFP-expressing HEp3 cells. The formation of metastatic colonies was monitored visually by a fluorescent stereoscope at 50× magnification. Representative images are shown, scale bar=500 μm (15A). Colony diameter was quantified at 6 days post injection. The data represent a total of 30 embryos from two independent experiments: 12 treated with Compound 124 (266Y) and 18 treated with Compound 13 (259Y). […] Each data point on the scatterplot represents the geometric mean diameter of 6-10 colonies analyzed per embryo (15B). Relative E-cadherin mRNA expression in HEp3 cells following 6 hours treatment with either Compound 124 (266Y) or Compound 13 (259Y) is shown (15C). Western blot showing E-cadherin protein re-expression in HEp3 cells following treatment with DMSO, Compound 124 (266Y), or Compound 13 (259Y) for 24 hours is shown (15D). […]

The subject of data set [2] is E-cadherin protein in SW620inv cells. Nature of the data set: Quantitative Western blot of E-cadherin protein, SW620inv time course. It counts as cell-based. Particulars: maintained level, 12, 18 and 24 hour time-points.
Data set [3] relates to E-cadherin expression in H520 cells. Nature of the data set: E-cadherin expression, in-cell Western (ICW), H520 cells. Particulars: Homo sapiens, NCI-H520. Format: cell-based. The method, then:
SW620 and H520 cells (5×10^4/100 μL) were seeded in a 96-well plate prior to treatment. Cells were treated with 10 μM concentration of synthesized compound in quadruplicate for 24 hours in RPMI 1640 supplemented medium and 100 μg/mL penicillin-streptomycin. The cells were then fixed with 100% methanol for 20 minutes at 4° C. The wells were then washed 2 times with PBS, permeabilized in 2% bovine serum albumin (BSA) and 0.2% TritonX-100 in PBS for 30 minutes at room temperature with gentle agitation, and blocked in LI-COR blocking buffer for 30 minutes at room temperature with gentle agitation. The cells were then incubated with the following primary antibodies: anti-E-Cadherin (1:500) and anti-α-Tubulin (1:1000) diluted in blocking buffer (1:1 dilution in PBS) for 2 hours at room temperature with gentle agitation. The cells were washed 4 times in PBS-T for 5 minutes each, and then incubated with the following secondary antibodies conjugated to a fluorescent entity: IRDye 800-conjugated goat anti-rabbit IgG (1:1000) and IRDye-700-conjugated goat anti-mouse IgG (1:2000) in blocking buffer (1:1 dilution in PBS) with gentle agitation for 1 h at room temperature. The cells were washed 4 times in PBS-T for 5 minutes each followed by a single wash with PBS. All liquid was removed from the wells and the plates were visualized and analyzed on the Odyssey IR imaging system (LI-COR Biosciences).
The assay was further optimized in the following manner. The cells were washed 2 times with PBS, fixed in 100% methanol at room temperature for 15 minutes, and again washed 2 times with PBS. The cells were then incubated with the following primary antibodies: anti-E-Cadherin (1:200) and anti-α-Tubulin (1:2000) diluted in ice cold 2% bovine serum albumin (BSA) and 0.2% TritonX-100 in PBS for 1 hour at room temperature with gentle agitation. The cells were washed 2 times in PBS and then incubated with the following secondary antibodies conjugated to a fluorescent entity: Licor 800-conjugated goat anti-rabbit IgG (1:2000) and IRDye-700-conjugated goat anti-mouse IgG (1:2000) in ice cold 2% BSA and 0.2% TritonX-100 in PBS with gentle agitation for 45 minutes at room temperature. The wells were washed 2 times in PBS, dried, and analyzed as previously mentioned.
Changes in expression level of E-cadherin in response to 10 μM compound in H520 cells was determined in a cell-based functional assay as described above, and the data are shown in Table IV. The compound number corresponds to the compound numbers used in Table II.
EC50 of inducement of E-cadherin expression in H520 cells was determined in a cell-based functional assay as described above, and the data are shown in Table VI. The compound number corresponds to the compound numbers used in Table II.

Data set [4] in a line: IV pharmacokinetics in Sprague-Dawley rats. Format: in vivo. The following applies: IV dosing. As for the experimental part: as §1
For data set [5], the system named is E-cadherin mRNA in H520 cells. Nature of the data set: qPCR of E-cadherin specific mRNA, H520 cells. It counts as cell-based. The following applies: H520, 10 μM, 6 hours post-treatment, relative to DMSO. On the technique in general: Quantitative PCR measures a nucleic acid by following its amplification.
Data set [6] concerns E-cadherin mRNA in SW620inv cells. Nature of the data set: qPCR of E-cadherin specific mRNA, SW620inv cells. Format: cell-based. The following applies: 10 μM, 6 hours post-treatment, relative to DMSO.
For a further data set, the system named is HMEC-1 cells. Nature of the data set: WST-1 metabolism (proliferation) assay, HMEC-1 cells. The following applies: WST-1, 10 μM, 24 h and 48 h. It counts as cell-based, human. The method, then:
Proliferation, migration, and tubular formation are essential characteristics of endothelial cells for the generation of new blood vessels. […] The lack of effect on cell proliferation is consistent with the lack of effect of compounds of similar class on the proliferation of SW620 and H520 cells (Stoops, S. L., et al. (2011) ACS Chemical Biology 6, 452-465). A scratch wound healing assay was performed on cultured HMEC-1 cells. Confluent monolayers of HMEC-1 cells were disrupted mechanically by scraping them with a sterile pipette tip. Within the observation period of 24 hours, Compound 13 treatment antagonized HMEC-1 monolayer wound healing (FIG. 12).
Referring to FIG. 11, HMEC-1 cells were treated with DMSO or 10 μM Compound 13 (259Y) using 96 wells plate, WST-1 was added (10 μL per well, incubate 37° C. for one hour, read at 450 nm reference 562 nm) at 24 h and 48 h. The blank control was a well with media but NO CELLS+wst-1. Each data point is a biological replicate that is the average of three technical replicates minus the average of three blank wells.
(In general: Formazan colour is commonly taken as a measure of viable cells.)

Bounds are passed on as bounds.

As for `O=C(NCCCNC(=O)c1cccnc1O)c1cc(-c2ccccc2)on1` [Compound 13, N-(3-(2-hydroxynicotinamido)propyl)-5-phenylisoxazole-3-carboxamide], the clearance entry was “very moderate” in the data set “Clearance in vitro, rat” and “moderate” in data set [4]. Also, in data set [1], the intrinsic clearance entry is given as “high”. For the same molecule, the “increase in E-cadherin mRNA” value with HEp3 cells worked out at 8 fold. Moreover, in data set [2], the “E-cadherin protein levels relative to control vehicle treated cells” value is recorded as above 10 ×. Moreover, in data set [3] (change in expression level of E-cadherin in response to 10 μM compound, 24 hours, H520 cells), the fold induction (in general, the ratio of treated to control signal) at 10 µM was found to be 5.54. In addition, the EC50 (usually the midpoint of the concentration-response curve) in data set [3] (inducement of E-cadherin expression in H520 cells) stood at 1000 nM. For the same molecule, the elimination half-life result in data set [4] is reported as “long”. For the same molecule, the volume of distribution result in data set [4] is on record as “moderate”. Also, the “increase of E-cadherin specific mRNA” value in data set [5] is 20 fold; in [6], 27 fold. For the same molecule, the HMEC-1 cell proliferation entry with HMEC-1 cells is “no significant effect”.

These data come from patent US9783510B2, “Small molecule mediated transcriptional induction of E-cadherin” (Vanderbilt University, priority 2014, dated 2017).
